The subject of one assay is skinned trabeculae. The assay can be described thus: Force-[Ca2+] relation in skinned trabeculae. Type of assay: cell-based, rat. The settings on record: after skinning; NCA. On the procedure: FIG. 2. […] (A) Steady-state force-[Ca^2+]i relationship in intact trabeculae before and after NCA (20 μmol/L). n=5. See text for details. (B) Force-[Ca^2+] relation in skinned trabeculae before and after NCA (n=6). […] The muscles were treated with DTT (5 mM) for 10 min after 1st force-[Ca^2+] was obtained in the presence of NCA alone, and a second force-[Ca^2+] relation was obtained in the presence of NCA+DTT. n=3. (D) For comparison, steady-state force-[Ca^2+]i relationship in intact trabeculae before and after AS (500 μmol/L). n=5.
To further test this hypothesis, steady-state force-[Ca^2+]i relations were obtained by tetanizing the muscles in the presence of ryanodine.

For a further assay, the target named is T1, MLC1 (Rattus norvegicus, UniProt P02600).
T1 construct: using 10 μg of skeletal or cardiac myofibrils; from tissue; host or cells: skeletal muscle myofibrils
T1 sequence (P02600 whole entry): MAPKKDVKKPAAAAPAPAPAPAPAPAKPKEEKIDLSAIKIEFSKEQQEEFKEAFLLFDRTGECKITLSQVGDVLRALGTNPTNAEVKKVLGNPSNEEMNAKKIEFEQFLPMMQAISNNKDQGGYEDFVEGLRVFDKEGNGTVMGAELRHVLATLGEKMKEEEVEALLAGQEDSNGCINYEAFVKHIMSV
The assay can be described thus: 2D gel shift western blot of skeletal myofibrils. The class given is biochemical. The settings on record: skeletal samples. An excerpt:
FIG. 6. MLC1 Cys81 necessary for increase in Fmax induced by treatment with HNO donors. (a) Sequence alignment comparing isoforms of rat cardiac (SEQ ID NO:16) and skeletal MLC1 (SEQ ID NO:17) in the region surrounding cardiac Cys81. (b) Steady-state force-[Ca^2+]i relations in control (o) versus NCA-treated (•) from cardiac or skeletal trabeculae indicating loss of increase in maximum force with loss of Cys81 in skeletal isoform with NCA (n=5, each group). (c) 2D Gel shift assay (non-reduced, NR and reduced, DTT) using 10 μg of skeletal or cardiac myofibrils indicating loss of higher molecular weight forms of MLC1 in skeletal HNO treated preparations while maintaining higher molecular weight form of TM (n=3).
Gel shift assay. 10 μg of rat myofibrils/treatment were diluted to 0.5 μg/μl in HEN including 0.1% (w/v) SDS and exposed to a treatment for 20 min at 37° C. Samples were diluted to 0.1 ug/ul in 1×LSD sample buffer, treated with 0, 5 or 100 mM DTT and separated by SDS PAGE. Proteins were silver stained or transferred to nitrocellulose and immunoblotted with primary antibodies for tropomyosin sarcomeric (CH1, Sigma-Aldrich Co., St. Louis, Mo., USA), actin (AC-40, Sigma-Aldrich Co., St. Louis, Mo., USA), myosin light chain 1 (MLM527, Abcam, Cambridge, Mass., USA) or myosin heavy chain (3-48, Abcam, Cambridge, Mass., USA). […]
On the technique in general: A gel shift assay detects complexes by their altered migration in electrophoresis.

On to `CC(=O)OC1(N=O)CCCCC1` [NCA, 1-nitrosocyclohexylacetate], for which, in the assay with skinned trabeculae, the Hill worked out at 2.39±1.02. Also, the “higher molecular weight forms of MLC1” value on MLC1 is recorded as “absence of higher molecular weight forms of MLC1”.

The record behind these values is patent publication US20120231482A1, “METHOD, KIT OR DIAGNOSTIC FOR THE DETECTION OF REAGENTS WHICH INDUCE ALTERED CONTRACTILITY” (THE JOHNS HOPKINS UNIVERSITY, priority 2009, published 2012).
